Measured values as given in the supplement of paper PMC10627819.

Assays:
S. aureus Newman [1] = assay: fitness (endpoint OD595 vs no drug) (fraction); higher = more growth; conditions: one replicate
Method in brief: (§1)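 Bacterial fitness was scored as optical density at the stationary-phase transition relative to the robust mean of no-drug control wells. Scores are capped at 1. The growth data were OD595 readings every 30 min for 14 h at 37 °C, background-subtracted against the first reading, from 384-well plates inoculated at OD595 0.01 in TSB, LB Lennox or CY.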

B. subtilis 168 [2] = assay: as above
Method in brief: as §1

S. aureus DSM 20231 = assay: Bliss interaction score (quartile over a dose matrix) (fitness difference); higher = more antagonism (negative = synergy)
Method in brief: (§2)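 Growth in each well was taken as OD595 at entry into stationary phase. Dividing by the plate's robust no-drug mean and capping at 1 gave fitness, and single-drug fitness was inferred from the combination data. The Bliss score, observed minus product-expected fitness, is summarised by quartiles over technical, biological and donor/recipient replicates.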

S. aureus Newman [3] = assay: as above
Method in brief: as §2

S. pneumoniae D39V = assay: as above
Method in brief: as §2

B. subtilis 168 [4] = assay: as above
Method in brief: as §2
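For Bliss interaction score (quartile over a dose matrix) in this document: first quartile when negative (synergy) and third quartile when positive (antagonism).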

CO/N=C(\C(=O)N[C@@H]1C(=O)N2C(C(=O)O)=C(COC(N)=O)CS[C@H]12)c1ccco1 [Cefuroxime] + C[C@@H]1O[C@@H]1P(=O)(O)O [Fosfomycin]
fitness
Conditions	first compound 0.04875 µg/mL	first compound 0.0975 µg/mL	first compound 0.195 µg/mL
B. subtilis 168 [2], partner 1.562 µg/mL	0.464	0.419	0.39
B. subtilis 168 [2], partner 3.124 µg/mL	0.363	0.337	0.28
B. subtilis 168 [2], partner 6.248 µg/mL	0.293	0.245	0.194
S. aureus Newman [1], partner 0.781 µg/mL	0.803	0.7	0.632
S. aureus Newman [1], partner 1.562 µg/mL	0.56	0.508	0.438
S. aureus Newman [1], partner 3.124 µg/mL	0.12	0.0863	0.0573

fitness, B. subtilis 168 [2], one replicate
Conditions	first compound 0.39 µg/mL	first compound 0.78 µg/mL	first compound 1.562 µg/mL	first compound 3.125 µg/mL	first compound 6.25 µg/mL
partner 1.562 µg/mL	0.344	0.301	0.179	0.136	0.113
partner 3.124 µg/mL	0.331	0.235	0.17	0.122	0.133
partner 6.248 µg/mL	0.189	0.131	0.0925	0.0543	0.0496

Conditions	Bliss interaction score
B. subtilis 168 [4]	-0.0716
S. aureus DSM 20231	0.0278
S. aureus Newman [3]	0.0983
S. pneumoniae D39V	0.0411

CO/N=C(\C(=O)N[C@@H]1C(=O)N2C(C(=O)O)=C(COC(N)=O)CS[C@H]12)c1ccco1 [Cefuroxime] + C[n+]1ccc(-c2cc[n+](C)cc2)cc1 [Paraquat]
fitness
Conditions	first compound 0.04875 µg/mL	first compound 0.0975 µg/mL	first compound 0.195 µg/mL
B. subtilis 168 [2], partner 1.25 µg/mL	0.705	0.633	0.539
B. subtilis 168 [2], partner 2.5 µg/mL	0.682	0.625	0.522
B. subtilis 168 [2], partner 5 µg/mL	0.632	0.584	0.366
S. aureus Newman [1], partner 1.25 µg/mL	0.955	0.906	0.963
S. aureus Newman [1], partner 2.5 µg/mL	0.88	0.924	0.937
S. aureus Newman [1], partner 5 µg/mL	0.993	0.907	0.939

fitness, B. subtilis 168 [2], one replicate
Conditions	first compound 1.562 µg/mL	first compound 3.125 µg/mL	first compound 6.25 µg/mL
partner 1.25 µg/mL	0.224	0.144	0.0805
partner 2.5 µg/mL	0.179	0.131	0.0628
partner 5 µg/mL	0.147	0.0619	0.0182

Conditions	Bliss interaction score
B. subtilis 168 [4]	-0.0801
S. aureus DSM 20231	0.0764
S. aureus Newman [3]	-0.0456
S. pneumoniae D39V	-0.0322

CO/N=C(\C(=O)N[C@@H]1C(=O)N2C(C(=O)O)=C(COC(N)=O)CS[C@H]12)c1ccco1 [Cefuroxime] + Cc1cc(NS(=O)(=O)c2ccc(N)cc2)no1 [Sulfamethoxazol]
fitness
Conditions	first compound 0.04875 µg/mL	first compound 0.0975 µg/mL	first compound 0.195 µg/mL
B. subtilis 168 [2], partner 1 µg/mL	0.708	0.67	0.404
B. subtilis 168 [2], partner 2 µg/mL	0.709	0.632	0.398
B. subtilis 168 [2], partner 4 µg/mL	0.687	0.636	0.5
S. aureus Newman [1], partner 1 µg/mL	≥ 1	0.954	0.879
S. aureus Newman [1], partner 2 µg/mL	0.953	0.966	0.836
S. aureus Newman [1], partner 4 µg/mL	0.986	0.935	0.84

fitness, B. subtilis 168 [2], one replicate
Conditions	first compound 0.195 µg/mL	first compound 0.39 µg/mL	first compound 0.78 µg/mL	first compound 1.562 µg/mL	first compound 3.125 µg/mL	first compound 6.25 µg/mL
partner 0.5 µg/mL	0.405	0.438	0.356	–	–	–
partner 1 µg/mL	–	0.0396	0.107	0.267	0.221	0.202
partner 2 µg/mL	–	0.29	0.262	0.251	0.198	0.132
partner 4 µg/mL	–	–	–	0.252	0.206	0.162

Conditions	Bliss interaction score
B. subtilis 168 [4]	-0.0536
S. aureus DSM 20231	0.111
S. aureus Newman [3]	-0.0351
S. pneumoniae D39V	-0.0409

CO/N=C(\C(=O)N[C@@H]1C(=O)N2C(C(=O)O)=C(COC(N)=O)CS[C@H]12)c1ccco1 [Cefuroxime] + Cc1ncc([N+](=O)[O-])n1CCO [Metronidazole]
fitness
Conditions	partner 0.625 µg/mL	partner 1.25 µg/mL	partner 2.5 µg/mL
B. subtilis 168 [2], first compound 0.04875 µg/mL	0.741	0.767	0.715
B. subtilis 168 [2], first compound 0.195 µg/mL	0.547	0.515	0.497
S. aureus Newman [1], first compound 0.04875 µg/mL	≥ 1	0.923	0.993
S. aureus Newman [1], first compound 0.0975 µg/mL	0.897	0.939	0.918
S. aureus Newman [1], first compound 0.195 µg/mL	0.943	0.978	0.921

fitness, B. subtilis 168 [2], one replicate
Conditions	first compound 1.562 µg/mL	first compound 3.125 µg/mL	first compound 6.25 µg/mL
partner 0.625 µg/mL	0.428	0.372	0.251
partner 1.25 µg/mL	0.376	0.268	0.242
partner 2.5 µg/mL	0.287	0.219	0.15

Conditions	Bliss interaction score
B. subtilis 168 [4]	0.0643
S. aureus DSM 20231	0.132
S. aureus Newman [3]	-0.0487
S. pneumoniae D39V	-0.0335

CO/N=C(\C(=O)N[C@@H]1C(=O)N2C(C(=O)O)=C(COC(N)=O)CS[C@H]12)c1ccco1 [Cefuroxime] + Cc1onc(-c2ccccc2)c1C(=O)N[C@@H]1C(=O)N2[C@@H]1SC(C)(C)[C@@H]2C(=O)O [Oxacillin]
fitness, S. aureus Newman [1]
Conditions	first compound 0.04875 µg/mL	first compound 0.0975 µg/mL	first compound 0.195 µg/mL
partner 0.0156 µg/mL	0.813	0.766	0.754
partner 0.0312 µg/mL	0.714	0.671	0.694
partner 0.0625 µg/mL	0.447	0.436	0.323

fitness, B. subtilis 168 [2], one replicate
Conditions	partner 0.002 µg/mL	partner 0.004 µg/mL	partner 0.0078 µg/mL	partner 0.008 µg/mL	partner 0.0155 µg/mL	partner 0.031 µg/mL	partner 0.075 µg/mL	partner 0.15 µg/mL	partner 0.3 µg/mL
first compound 0.04875 µg/mL	0.882	0.858	0.556	0.979	0.507	0.507	–	–	–
first compound 0.0975 µg/mL	0.734	0.866	0.506	0.881	0.454	0.486	–	–	–
first compound 0.195 µg/mL	0.739	0.705	0.375	0.717	0.344	0.367	0.0418	0.0405	0.0333
first compound 0.39 µg/mL	–	–	–	–	–	–	0.0582	0.0174	0.0294
first compound 0.78 µg/mL	–	–	–	–	–	–	0.0387	0.0089	0.0244
first compound 1.562 µg/mL	0.239	0.138	–	0.111	–	–	–	–	–
first compound 3.125 µg/mL	0.137	0.129	–	0.0905	–	–	–	–	–
first compound 6.25 µg/mL	0.11	0.1	–	0.0957	–	–	–	–	–

Conditions	Bliss interaction score
B. subtilis 168 [4]	-0.0556
S. aureus DSM 20231	0.0493
S. aureus Newman [3]	-0.0271
S. pneumoniae D39V	-0.115
